Reference: article PMC9578396, “Intrinsic Antibacterial Activity of Xeruborbactam In Vitro: Assessing Spectrum and Mode of Action” (Antimicrobial Agents and Chemotherapy, 2022)
In brackets after ≈: the same amount, converted by molar mass. Read-outs that look alike come from different tables or passages of the source.

Columns and labels:
Type in all cases: cell-based
[1] = test system: Staphylococcus aureus; test: MIC, Staphylococcus aureus (MSSA, MRSA)
Text: (§1) Bacterial isolates were subjected to broth microdilution susceptibility testing, performed according to Clinical and Laboratory Standards Institute (CLSI) methods ([46]), using panels prepared in-house. Meropenem was purchased from Sandoz, and all other antibiotics were from Sigma-Aldrich. Xeruborbactam was synthesized at Qpex Biopharma, San Diego, CA. Avibactam was purchased from eNovation Chemicals LLC, Bridgewater, NJ, USA; zidebactam was from MedKoo Biosciences, Inc., Morrisville, NC, and nacubactam was from Advanced ChemBlocks, Hayward, CA. Durlobactam was synthesized at Acme Bioscience, Palo Alto, CA, USA.

[2] = test system: Klebsiella pneumoniae; test: microbe, parasite or virus in culture; settings: Klebsiella pneumoniae
Text: (§2) (i) Panels of engineered bacterial strains containing various combinations of porin and efflux mutations were used. The construction of all the strains used in the study is described in detail in references, [44], and [45]. (ii) KPC-producing clinical isolates and their derivatives that lost KPC plasmids were used also. These strains and their origins are described in the Table S2. (iii) Finally, KPC-producing clinical isolates enriched in strains with porin mutations were used. The mutations identified include various deletions, insertions, nonsense mutations, and decreased expression. Most of the isolates were obtained from JMI Laboratories or International Health Management Associates (IHMA); they were collected in the course of global surveillance studies.
as §1, with “Meropenem was purchased from Sandoz, and all other antibiotics were from Sigma-Aldrich.” left out

[3] = test system: Streptococcus pneumoniae; test: MIC, Streptococcus pneumoniae; settings: Streptococcus pneumoniae, read-out: MIC
Text: as §1

[4] = test system: Enterococcus faecalis; test: MIC, Enterococcus faecalis
Text: as §1

[5] = test system: Pseudomonas aeruginosa; test: Broth microdilution MIC (CLSI), Pseudomonas aeruginosa; settings: Pseudomonas aeruginosa
Text: as §2
as §1, with “Meropenem was purchased from Sandoz, and all other antibiotics were from Sigma-Aldrich.” left out

[6] = test system: Escherichia coli; test: Broth microdilution MIC (CLSI), Escherichia coli; settings: Escherichia coli
Text: as §2
as §1, with “Meropenem was purchased from Sandoz, and all other antibiotics were from Sigma-Aldrich.” left out

[7] = test system: Acinetobacter baumannii; test: Broth microdilution MIC (CLSI), Acinetobacter baumannii; settings: Acinetobacter baumannii
Text: as §2
as §1, with “Meropenem was purchased from Sandoz, and all other antibiotics were from Sigma-Aldrich.” left out

[8] = test system: Enterobacter cloacae species complex; test: Broth microdilution MIC (CLSI), Enterobacter cloacae; settings: Enterobacter cloacae, read-out: MIC
Text: as §1

C[C@H]1COc2c(N3CCN(C)CC3)c(F)cc3c(=O)c(C(=O)O)cn1c23 [Levofloxacin]
MIC ([1]; Staphylococcus aureus, ATCC 29213 / MSSA): 0.125 µg/mL (≈ 0.346 µM) | MIC ([1]; Staphylococcus aureus, MRSA): 0.125 µg/mL (≈ 0.346 µM) | MIC ([1]; Staphylococcus aureus, MRSA, sa001, MRSA, read-out: MIC): 8 µg/mL (≈ 22.1 µM) | MIC ([1]; Staphylococcus aureus, MRSA, sa010, MRSA, read-out: MIC): 8 µg/mL (≈ 22.1 µM) | MIC ([1]; Staphylococcus aureus, MRSA, sa013, MRSA, read-out: MIC): 0.25 µg/mL (≈ 0.692 µM) | MIC ([1]; Staphylococcus aureus, MRSA, sa148, MRSA, read-out: MIC): 16 µg/mL (≈ 44.3 µM) | MIC ([1]; Staphylococcus aureus, MRSA, sa150, MRSA, read-out: MIC): 8 µg/mL (≈ 22.1 µM) | MIC ([1]; Staphylococcus aureus, MRSA, sa151, MRSA, read-out: MIC): 16 µg/mL (≈ 44.3 µM) | MIC ([1]; Staphylococcus aureus, MRSA, sa153, MRSA, read-out: MIC): 16 µg/mL (≈ 44.3 µM) | MIC ([1]; Staphylococcus aureus, MRSA, sa278, MRSA, read-out: MIC): 32 µg/mL (≈ 88.6 µM) | MIC ([1]; Staphylococcus aureus, MRSA, sa279, MRSA, read-out: MIC): 2 µg/mL (≈ 5.53 µM) | MIC ([1]; Staphylococcus aureus, MRSA, sa280, MRSA, read-out: MIC): 2 µg/mL (≈ 5.53 µM) | MIC ([1]; Staphylococcus aureus, MRSA, sa281, MRSA, read-out: MIC): 32 µg/mL (≈ 88.6 µM) | MIC ([1]; Staphylococcus aureus, MSSA): 0.125 µg/mL (≈ 0.346 µM) | MIC ([1]; Staphylococcus aureus, MSSA, sa006, MSSA, read-out: MIC): 0.06 µg/mL (≈ 0.166 µM) | MIC ([1]; Staphylococcus aureus, MSSA, sa008, MSSA, read-out: MIC): 0.25 µg/mL (≈ 0.692 µM) | MIC ([1]; Staphylococcus aureus, MSSA, sa011, MSSA, read-out: MIC): 0.25 µg/mL (≈ 0.692 µM) | MIC ([1]; Staphylococcus aureus, MSSA, sa012, MSSA, read-out: MIC): 0.25 µg/mL (≈ 0.692 µM) | MIC ([1]; sa002, MSSA): 0.125 µg/mL (≈ 0.346 µM) | MIC ([1]; sa003, MSSA): 0.125 µg/mL (≈ 0.346 µM) | MIC ([1]; sa004, MSSA): 0.125 µg/mL (≈ 0.346 µM) | MIC ([1]; sa005, MSSA): 0.125 µg/mL (≈ 0.346 µM) | MIC ([1]; sa007, MSSA): 0.125 µg/mL (≈ 0.346 µM) | MIC ([1]; sa009, MSSA): 0.125 µg/mL (≈ 0.346 µM) | MIC ([1]; sa152, MRSA): 0.125 µg/mL (≈ 0.346 µM) | MIC ([2]; strain KPM1026a, read-out: MIC): 0.06 µg/mL | MIC ([3]; sp001): 0.5 µg/mL (≈ 1.38 µM) | MIC ([3]; sp002): 0.5 µg/mL (≈ 1.38 µM) | MIC ([3]; sp003): 1 µg/mL (≈ 2.77 µM) | MIC ([3]; sp004): 1 µg/mL (≈ 2.77 µM) | MIC ([3]; sp005): 0.5 µg/mL (≈ 1.38 µM) | MIC ([3]; sp006): 0.5 µg/mL (≈ 1.38 µM) | MIC ([3]; sp007): 1 µg/mL (≈ 2.77 µM) | MIC ([3]; sp008): 0.5 µg/mL (≈ 1.38 µM) | MIC ([3]; sp009): 1 µg/mL (≈ 2.77 µM) | MIC ([3]; sp117): 2 µg/mL (≈ 5.53 µM) | MIC ([3]; sp118): 1 µg/mL (≈ 2.77 µM) | MIC ([3]; sp119): 1 µg/mL (≈ 2.77 µM) | MIC ([3]; sp120): 1 µg/mL (≈ 2.77 µM) | MIC ([3]; sp121): 1 µg/mL (≈ 2.77 µM) | MIC ([3]; sp122): 32 µg/mL (≈ 88.6 µM) | MIC ([3]; sp123): 0.5 µg/mL (≈ 1.38 µM) | MIC ([3]; sp125): 1 µg/mL (≈ 2.77 µM) | MIC ([3]; sp126): 1 µg/mL (≈ 2.77 µM) | MIC ([4]; efs003): 0.5 µg/mL (≈ 1.38 µM) | MIC ([4]; efs004): 1 µg/mL (≈ 2.77 µM) | MIC ([4]; efs005): 1 µg/mL (≈ 2.77 µM) | MIC ([4]; efs006): 1 µg/mL (≈ 2.77 µM) | MIC ([4]; efs007): 1 µg/mL (≈ 2.77 µM) | MIC ([4]; efs026): 0.5 µg/mL (≈ 1.38 µM) | MIC ([4]; efs071): 32 µg/mL (≈ 88.6 µM) | MIC ([4]; efs072): 16 µg/mL (≈ 44.3 µM) | MIC ([4]; efs073): 1 µg/mL (≈ 2.77 µM) | MIC ([4]; efs090): 32 µg/mL (≈ 88.6 µM) | MIC ([4]; efs091): 32 µg/mL (≈ 88.6 µM) | MIC ([4]; efs092): 32 µg/mL (≈ 88.6 µM) | MIC ([4]; efs093): 16 µg/mL (≈ 44.3 µM) | MIC ([4]; efs094): 32 µg/mL (≈ 88.6 µM) | MIC ([4]; efs095): 2 µg/mL (≈ 5.53 µM) | MIC ([4]; efs096): 32 µg/mL (≈ 88.6 µM)

NCCONC(=O)[C@@H]1CC[C@@H]2CN1C(=O)N2OS(=O)(=O)O [Nacubactam]
MIC ([5]; strain PAM1020, wild type, read-out: MIC): 128 µg/mL | MIC ([5]; strain PAM1032, nalB (MexAB-OprM overexpression)): 128 µg/mL | MIC ([5]; strain PAM1033, nfxB (MexCD-OprJ overexpression)): 32 µg/mL | MIC ([5]; strain PAM1034, nfxC (MexEF-OprN overexpression)): 128 µg/mL | MIC ([5]; strain PAM1106, mexA::Tet): 128 µg/mL | MIC ([5]; strain PAM1154, oprM::Hg): 128 µg/mL | MIC ([6]; strain ECM5497, wild type, read-out: MIC): 4 µg/mL | MIC ([6]; strain ECM6001, ΔacrB): 4 µg/mL | MIC ([6]; strain ECM6502, marR (AcrAB overexpression)): 2 µg/mL | MIC ([2]; strain KPM1026a, wild type, read-out: MIC): 8 µg/mL | MIC ([2]; strain KPM1027, ramR, read-out: MIC): 4 µg/mL | MIC ([2]; strain KPM1171, ramR ompK36_1171, read-out: MIC): > 64 µg/mL | MIC ([2]; strain KPM2040, ompK36_2040, read-out: MIC): > 64 µg/mL | MIC ([2]; strain KPM2600, ΔompK35): 8 µg/mL | MIC ([2]; strain KPM2613, ΔompK35 ompK36_2040): > 64 µg/mL | MIC ([2]; strain KPM2696, ΔacrB): 2 µg/mL | MIC ([7]; strain AB1007, wild type, read-out: MIC): > 256 µg/mL | MIC ([7]; strain ACM1013, ΔadeIJK): > 256 µg/mL | MIC ([7]; strain ACM1014, ΔadeABC): > 256 µg/mL | MIC ([7]; strain ACM1015, ΔadeIJK ΔadeABC): > 256 µg/mL | MIC ([7]; strain ACM1027, adeN (AdeIJK overexpression)): > 256 µg/mL | MIC ([7]; strain ACM1030, adeS (AdeABC overexpression)): > 256 µg/mL

CN(C)c1cc(NC(=O)CNC(C)(C)C)c(O)c2c1C[C@H]1C[C@H]3[C@H](N(C)C)C(O)=C(C(N)=O)C(=O)[C@@]3(O)C(O)=C1C2=O [Tigecycline]
MIC ([6]; clinical isolate EC1078, OmpK35 NF, OmpK36 NF, read-out: MIC): 0.5 µg/mL | MIC ([6]; clinical isolate EC1081, OmpK35 FN, OmpK36 FN, read-out: MIC): 0.5 µg/mL | MIC ([6]; clinical isolate EC1085, OmpK35 FN, OmpK36 FN, read-out: MIC): 0.25 µg/mL | MIC ([6]; clinical isolate EC1088, OmpK35 FN, OmpK36 FN, read-out: MIC): 0.125 µg/mL | MIC ([6]; clinical isolate EC1097, OmpK35 FN, OmpK36 FN, read-out: MIC): 1 µg/mL | MIC ([6]; clinical isolate EC1098, OmpK35 NF, OmpK36 FN, read-out: MIC): 1 µg/mL | MIC ([6]; clinical isolate EC1119, OmpK35 NF, OmpK36 NF, read-out: MIC): 4 µg/mL | MIC ([6]; clinical isolate EC1121, OmpK35 NF, OmpK36 FN, read-out: MIC): 0.25 µg/mL | MIC ([8]; clinical isolate ECL1057, OmpK35 FN, OmpK36 NF): 8 µg/mL (≈ 13.7 µM) | MIC ([8]; clinical isolate ECL1079, OmpK35 NF, OmpK36 NF): 4 µg/mL (≈ 6.83 µM) | MIC ([8]; clinical isolate ECL1126, OmpK35 FN, OmpK36 FN): 2 µg/mL (≈ 3.41 µM) | MIC ([8]; clinical isolate ECL1131, OmpK35 NF, OmpK36 FN): 2 µg/mL (≈ 3.41 µM) | MIC ([2]; clinical isolate KP1004, OmpK35 NF, OmpK36 FN, read-out: MIC): 1 µg/mL | MIC ([2]; clinical isolate KP1070, OmpK35 NF, OmpK36 FN, read-out: MIC): 1 µg/mL | MIC ([2]; clinical isolate KP1074, OmpK35 NF, OmpK36 PFN (GD), read-out: MIC): 0.5 µg/mL | MIC ([2]; clinical isolate KP1093, OmpK35 NF, OmpK36 PFN (GD), read-out: MIC): 1 µg/mL | MIC ([2]; clinical isolate KP1251, OmpK35 NF, OmpK36 FN, read-out: MIC): 1 µg/mL | MIC ([2]; clinical isolate KP1274, OmpK35 FN, OmpK36 FN, read-out: MIC): 1 µg/mL | MIC ([2]; clinical isolate KP1463, OmpK35 NF, OmpK36 NF, read-out: MIC): 1 µg/mL | MIC ([2]; clinical isolate KP1469, OmpK35 NF, OmpK36 NF, read-out: MIC): 4 µg/mL | MIC ([2]; clinical isolate KP1598, OmpK35 NF, OmpK36 PFN (GD), read-out: MIC): 4 µg/mL
